Assay results published in patent publication US20120082976A1, “METHOD OF SCREENING FOR INSULIN SECRETION-POTENTIATING AGENTS” (KOBE UNIVERSITY, priority 2009, published 2012).

Tests used:
Rap1 [1] = assay: GTP-RAP1 pull-down assay in Epac2-lacking pancreatic beta-cells transformed with mouse Epac2 expression vector; type: cell-based
Protocol: (§1) Pancreatic beta-cells lacking Epac2 were obtained according to the technique disclosed in Shibasaki T. et al. Proc. Natl. Acad. Sci. USA 104, 19333-9 (2007), by isolating from the mice which were bred after crossing Epac2-lacking mice with IT6 mice, in which SV40 large T […] is expressed under the control of human insulin gene promoter. The method for preparing IT6 mice is described in Miyazaki J, et al., Endocrinology, 127, 126-132 (1990). Further, MIN6 cells were prepared by the technique disclosed in Japanese patent application publication No. 2002-125661.
(§2) GTP-RAP1 pull-down assay was performed according to the method described in Shibasaki T. et al. Proc. Natl. Acad. Sci. USA 104, 19333-9 (2007). Namely, MIN6 cells which had been let stand for 30 minutes in HEPES-KRB buffer in advance were cultured for further 15 minutes in HEPES-KRB buffer containing an agent of interest and 2.8 mM glucose. Then, the cells were fractured, and to the cell lysate thus obtained was added glutathione resin which carried GST-Ra1GDS-RID bound to it (SIGMA). After 90 minutes of incubation at 4 deg C., the resin was separated by centrifugation, washed several times with HEPES-KRB buffer, and subjected to SDS-PAGE gel electrophoresis. After the SDS-PAGE gel electrophoresis, Western blotting was carried to transfer the protein onto PVDF membrane, and Rap1 transferred on the membrane was detected with anti-Rap1 antibody (Santa Cruz Biotechnology, Inc., USA).

[2] = biological target: T1, fluorescent-labeled mouse Epac2 (Mus musculus, UniProt Q9EQZ6); assay: FRET dynamic analysis of fluorescent-labeled mouse Epac2 in COS-1 cells; type: cell-based; parameters: expressed in transfected cells; host or cells: COS-1 cells (A1); conditions: COS-1 cells that did not express SUR1, in the presence of SU agent
T1 sequence (Q9EQZ6 1-1011): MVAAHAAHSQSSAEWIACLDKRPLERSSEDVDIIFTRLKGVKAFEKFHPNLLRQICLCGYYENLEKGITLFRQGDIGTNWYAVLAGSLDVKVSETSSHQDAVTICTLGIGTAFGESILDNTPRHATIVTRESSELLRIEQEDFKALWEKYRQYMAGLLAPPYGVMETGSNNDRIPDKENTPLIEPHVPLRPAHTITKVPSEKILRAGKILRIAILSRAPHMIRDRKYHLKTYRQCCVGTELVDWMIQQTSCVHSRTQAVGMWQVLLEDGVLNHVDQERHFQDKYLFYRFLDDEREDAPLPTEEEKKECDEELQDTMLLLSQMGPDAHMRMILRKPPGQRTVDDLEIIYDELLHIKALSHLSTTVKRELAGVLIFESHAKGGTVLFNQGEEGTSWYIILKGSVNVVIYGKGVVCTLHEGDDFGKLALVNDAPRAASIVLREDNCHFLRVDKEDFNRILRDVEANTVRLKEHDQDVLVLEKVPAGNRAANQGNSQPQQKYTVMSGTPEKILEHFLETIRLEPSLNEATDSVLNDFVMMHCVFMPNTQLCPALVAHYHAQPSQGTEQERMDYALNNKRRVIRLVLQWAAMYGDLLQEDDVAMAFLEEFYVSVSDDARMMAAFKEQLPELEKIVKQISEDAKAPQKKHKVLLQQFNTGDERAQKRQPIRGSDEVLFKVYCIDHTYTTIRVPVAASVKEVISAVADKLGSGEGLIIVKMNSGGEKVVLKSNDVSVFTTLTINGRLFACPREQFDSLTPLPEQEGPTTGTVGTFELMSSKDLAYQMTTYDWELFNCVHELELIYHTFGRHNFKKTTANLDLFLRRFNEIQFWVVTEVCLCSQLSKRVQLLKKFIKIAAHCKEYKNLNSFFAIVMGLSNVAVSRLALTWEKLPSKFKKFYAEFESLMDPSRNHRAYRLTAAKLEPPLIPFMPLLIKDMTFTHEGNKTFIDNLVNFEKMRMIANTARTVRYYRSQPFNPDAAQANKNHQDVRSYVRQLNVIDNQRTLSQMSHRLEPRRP
Protocol: Two days before the day for measurement, the cells were transformed with fluorescent-labeled mouse Epac2 expression vector and then cultured. On the day before the day for measurement, the cells were transferred onto the glass culture dishes of 25 mm in diameter, and culture was continued. About 48 hours after the transformation, the culture medium was replaced with HEPES-KRB buffer (HEPES buffer containing 133.4 mM NaCl, 4.7 mM KCl, 1.2 mM KH2PO4, 1.2 mM MgSO4, 2.5 mM CaCl2, 5.0 mM NaHCO3, 2.8 mM glucose, and 0.2% BSA (pH 7.4)). The cells were observed through a confocal microscope (FV1000, Olympus Corporation) equipped with the UPlanSApo objective lens (100*oil/1.40 NA) to set the focus of the lens on the cells, and excitation light with the wavelength of 440 nm was irradiated using 440 nm LD laser (FV5-LDPSU, Olympus Corporation) at the power of 0.5%. Fluorescent light emitted from thus excited fluorescent-labeled mouse Epac2 was observed through two fluorescence filters, 480DF30 (for 480 nm light) and 535DF25 (for 535 nm light) as dual images of the fluorescent light every 5 seconds for dynamic analysis of the emitted fluorescent light. The results of the dynamic analysis, after first calculating the ratio R in intensity of fluorescence at 535 nm to 480 nm at each measurement (ratio of intensity at 535 nm/intensity at 480 nm), were expressed in the value which was derived by dividing the ratio by the initial value R0 (ratio of intensity at 535 nm/intensity at 480 nm before addition of an agent), i.e., R/R0. All the observation was carried out at room temperature.

Rap1 [3] = assay: GTP-RAP1 pull-down assay in MIN6 cells; type: cell-based
Protocol: as §2
Epac2 has the GEF activity and activates Rap1 by converting it to GTP-bound Rap1 through its binding to […]. This reaction constitute part of signal transmission for insulin secretion in beta-cells. Thus, it was examined whether or not Rap1 is activated with SU agents, using MIN6 cells, which originate from beta-cells. Activation of Rap1 was measured by determining GTP-bound Rap1, using GTP-RAP1 pull-down assay.

Rap1 [4] = assay: GTP-RAP1 pull-down assay in Epac2-lacking pancreatic beta-cells; type: cell-based, mouse
Protocol: as §1, §2
Then, using Epac2-lacking pancreatic beta-cells, examination was performed as to whether Rap1 was activated by SU agents. Activation of Rap1 was measured by determining the amount of GTP-bound Rap1 using GTP-RAP1 pull-down assay.

mouse Epac2 = biological target: T2, mouse Epac2 (Mus musculus, UniProt Q9EQZ6); assay: Sulfonylurea binding experiment with tritium-labeled glibenclamide in COS-1 cells transformed with mouse Epac2 expression vector
T2 construct: expressed in transfected cells; host or cells: COS-1 cells
T2 sequence (Q9EQZ6 1-1011): T1 sequence (Q9EQZ6 1-1011)
Excerpt: COS1 cells were transformed with mouse Epac2 expression vector. […] The membrane was washed four times with the same buffer which had been ice cooled, and then measured for radioactivity on a liquid scintillation counter.

pancreatic islets = assay: Insulin secretion experiment, pancreatic islets of wild-type and Epac2-lacking mice; type: cell-based, mouse
Protocol: Mouse pancreatic beta-cells were isolated from wild-type mice (C57BL/6) or Epac2-lacking mice, and cultured for two days. The mouse pancreatic beta-cells were let stand in HEPES-KRB buffer containing 2.8 mM glucose for 30 minutes. The cells then were dispensed to […] in such a manner that five pancreatic islets of a like size were contained in each well, and cultured for 15 minutes in 100 micro L HEPES-KRB buffer containing an agent of interest and 2.8 mM glucose. The amount of insulin released in the medium and that in the cells were measured using an insulin assay kit (Medical Biological Laboratories Co. Ltd.). The amount of secreted insulin was normalized by the amount of insulin in the cells.
The effect of SU agents on insulin secretion via Epac2 was examined in an insulin secretion experiment using pancreatic islets. First, pancreatic islets obtained from wild-type mice and Epac2-lacking mice were stimulated with glucose, and the amount of secreted insulin was determined.

[5] = biological target: T1, fluorescent-labeled mouse Epac2; assay: FRET dynamic analysis of fluorescent-labeled mouse Epac2 in MIN6 cells; type: cell-based; parameters: expressed in transfected cells; host or cells: MIN6 cells (A3); conditions: in the presence of SU agent
Protocol: All the observation was carried out at room temperature.

[6] = clinical report (Non-patent document 19); cited from earlier work
[7] = Oral glucose tolerance test in wild-type and Epac2-lacking mice; type: in vivo, mouse; conditions: oral 1.5 g/kg glucose plus 100 mg/kg tolbutamide
Protocol: Peripheral blood was sampled at a predetermined point of time, and serum insulin concentration and blood glucose concentration were measured with an ELISA kit (mftd. by Morinaga) and Antisense III glucose analysis device (Bayer Yakuhin, Ltd.), respectively.
Next, glucose was administered together with tolbutamide, and measurement was conducted in the same manner.

[8] = concentration-dependent, 15 minutes, 2.8 mM glucose

Structure (SMILES)	activation of Rap1 (Rap1 [1])	change in R/R0 value (FRET) [2]	amount of GTP-bound Rap1 (activation of Rap1) (Rap1 [3]; [8])	activation of Rap1 (Rap1 [4])	IC50 (mouse Epac2)	amount of GTP-bound Rap1 (activation of Rap1) (Rap1 [3]; concentrations higher than 100 nM)	insulin secretion, islets from Epac2-lacking mice compared with wild-type mice (pancreatic islets; 10 nM)	change in R/R0 value (FRET) [5]	glycemic control in a patient with neonatal diabetes [6]	insulin secretion, islets from Epac2-lacking mice compared with wild-type mice (pancreatic islets; 100 nM)	blood glucose concentration, Epac2-lacking mice compared with wild-type mice [7]	serum insulin concentration, Epac2-lacking mice compared with wild-type mice [7]
CC(C)[C@H]1CC[C@H](C(=O)N[C@H](Cc2ccccc2)C(=O)O)CC1 [nateglinide]	did not activate Rap1	no change in R/R0 value	–	–	–	–	–	–	–	–	–	–
CCCNC(=O)NS(=O)(=O)c1ccc(Cl)cc1 [chlorpropamide]	found to activate Rap1	decrease in R/R0	increase the amount of GTP-bound Rap1	activated no Rapt	–	–	–	–	–	–	–	–
COc1ccc(Cl)cc1C(=O)NCCc1ccc(S(=O)(=O)NC(=O)NC2CCCCC2)cc1 [glibenclamide]	found to activate Rap1	decrease in R/R0	increase the amount of GTP-bound Rap1	activated no Rapt	0.025 µM	failed to increase it	markedly low insulin secretion	concentration-dependent decrease in R/R0 value	–	–	–	–
Cc1ccc(S(=O)(=O)NC(=O)NN2CC3CCCC3C2)cc1 (stereo not shown) [gliclazide]	–	no change in R/R0 value	no effect on the amount of GTP-bound Rap1	–	–	–	no significant difference	–	not effective	–	–	–
CCCCNC(=O)NS(=O)(=O)c1ccc(C)cc1 [tolbutamide]	found to activate Rap1	decrease in R/R0	–	activated no Rapt	240 µM	–	–	concentration-dependent decrease in R/R0 value	–	markedly low insulin secretion	high in the Epac2-lacking mice compared with the wild-type mice	low in the Epac2-lacking mice compared with the wild-type mice
Cc1cnc(C(=O)NCCc2ccc(S(=O)(=O)NC(=O)NC3CCCCC3)cc2)cn1 [glipizide]	found to activate Rap1	decrease in R/R0	increase the amount of GTP-bound Rap1	activated no Rapt	–	–	–	–	–	–	–	–
CC(=O)c1ccc(S(=O)(=O)NC(=O)NC2CCCCC2)cc1 [acetohexamide]	found to activate Rap1	decrease in R/R0	increase the amount of GTP-bound Rap1	activated no Rapt	–	–	–	–	–	–	–	–
